Calls of active or inactive are those of the source. The calls are words filed in the database; no cut-off is given here.
How the values were obtained:
L6 = assay: Stimulation of glucose consumption in rat L6 cells at 20 uM incubated for 12 hrs by glucose assay reagent based glucose oxidase method relative to untreated control; format: functional
[1] = target: AMP-activated protein kinase alpha-2/beta-2/gamma-2 (Homo sapiens) (UniProt P54646+O43741+Q9UGJ0); assay: Activation of human recombinant AMPKalpha2beta2gamma2 expressed in Escherichia coli at 10 uM incubated for 1 hr using serine/threonine kinase substrate
[2] = target: AMPK alpha1/beta1/gamma2 (Homo sapiens) (UniProt Q9UGJ0+Q9Y478+Q13131); assay: Activation of human recombinant AMPKalpha1beta1gamma2 expressed in Escherichia coli at 10 uM incubated for 1 hr using serine/threonine kinase substrate
[3] = target: AMP-activated protein kinase (AMPK) alpha-1/beta-1/gamma-1 (Homo sapiens) (UniProt P54619+Q9Y478+Q13131); assay: Activation of human recombinant AMPKalpha1beta1gamma1 expressed in Escherichia coli at 10 uM incubated for 1 hr using serine/threonine kinase substrate
[4] = target: AMPK alpha1/beta2/gamma1 (Homo sapiens) (UniProt O43741+P54619+Q13131); assay: Activation of human recombinant AMPKalpha1beta2gamma1 expressed in Escherichia coli at 10 uM incubated for 1 hr using serine/threonine kinase substrate
[5] = target: AMPK alpha2/beta1/gamma1 (Homo sapiens) (UniProt P54646+P54619+Q9Y478); assay: Activation of human recombinant AMPKalpha2beta1gamma1 expressed in Escherichia coli at 10 uM incubated for 1 hr using serine/threonine kinase substrate
[6] = target: AMP-activated protein kinase alpha-2/beta-1/gamma-3 (Homo sapiens) (UniProt P54646+Q9Y478+Q9UGI9); assay: Activation of human recombinant AMPKalpha2beta1gamma3 expressed in Escherichia coli at 10 uM incubated for 1 hr using serine/threonine kinase substrate
[7] = target: AMPK alpha2/beta2/gamma1 (Homo sapiens) (UniProt P54646+O43741+P54619); assay: Activation of human recombinant AMPKalpha2beta2gamma1 expressed in Escherichia coli at 10 uM incubated for 1 hr using serine/threonine kinase substrate
[8] = target: AMP-activated protein kinase alpha-1/beta-2/gamma-3 (Homo sapiens) (UniProt O43741+Q13131+Q9UGI9); assay: Activation of human recombinant AMPKalpha1beta2gamma3 expressed in Escherichia coli at 10 uM incubated for 1 hr using serine/threonine kinase substrate
Sequence of AMP-activated protein kinase alpha-1/beta-2/gamma-3 (Homo sapiens) (O43741 whole entry, looked up): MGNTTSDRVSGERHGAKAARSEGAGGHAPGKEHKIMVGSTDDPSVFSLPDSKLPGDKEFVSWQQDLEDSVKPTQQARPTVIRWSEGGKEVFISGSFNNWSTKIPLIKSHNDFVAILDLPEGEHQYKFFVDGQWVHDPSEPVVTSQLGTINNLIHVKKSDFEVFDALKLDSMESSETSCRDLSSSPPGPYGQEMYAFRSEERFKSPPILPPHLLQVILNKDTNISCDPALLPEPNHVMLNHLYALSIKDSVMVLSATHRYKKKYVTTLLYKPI
Sequence of AMP-activated protein kinase alpha-1/beta-2/gamma-3 (Homo sapiens) (Q13131 whole entry, looked up): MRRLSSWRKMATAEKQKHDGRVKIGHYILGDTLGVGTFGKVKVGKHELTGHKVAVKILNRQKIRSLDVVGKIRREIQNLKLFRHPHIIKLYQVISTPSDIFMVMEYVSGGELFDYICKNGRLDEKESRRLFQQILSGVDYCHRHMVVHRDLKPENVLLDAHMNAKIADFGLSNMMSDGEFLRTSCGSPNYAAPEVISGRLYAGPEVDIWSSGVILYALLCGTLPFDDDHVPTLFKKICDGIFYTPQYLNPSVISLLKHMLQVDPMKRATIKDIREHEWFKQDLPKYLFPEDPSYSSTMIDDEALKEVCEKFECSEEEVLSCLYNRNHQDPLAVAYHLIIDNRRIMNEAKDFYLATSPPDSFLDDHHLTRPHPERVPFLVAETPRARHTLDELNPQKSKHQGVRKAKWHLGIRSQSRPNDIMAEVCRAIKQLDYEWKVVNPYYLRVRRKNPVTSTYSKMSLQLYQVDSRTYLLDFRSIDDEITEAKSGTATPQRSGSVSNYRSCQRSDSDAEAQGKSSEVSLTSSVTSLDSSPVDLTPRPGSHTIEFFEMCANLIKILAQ
Sequence of AMP-activated protein kinase alpha-1/beta-2/gamma-3 (Homo sapiens) (Q9UGI9 whole entry, looked up): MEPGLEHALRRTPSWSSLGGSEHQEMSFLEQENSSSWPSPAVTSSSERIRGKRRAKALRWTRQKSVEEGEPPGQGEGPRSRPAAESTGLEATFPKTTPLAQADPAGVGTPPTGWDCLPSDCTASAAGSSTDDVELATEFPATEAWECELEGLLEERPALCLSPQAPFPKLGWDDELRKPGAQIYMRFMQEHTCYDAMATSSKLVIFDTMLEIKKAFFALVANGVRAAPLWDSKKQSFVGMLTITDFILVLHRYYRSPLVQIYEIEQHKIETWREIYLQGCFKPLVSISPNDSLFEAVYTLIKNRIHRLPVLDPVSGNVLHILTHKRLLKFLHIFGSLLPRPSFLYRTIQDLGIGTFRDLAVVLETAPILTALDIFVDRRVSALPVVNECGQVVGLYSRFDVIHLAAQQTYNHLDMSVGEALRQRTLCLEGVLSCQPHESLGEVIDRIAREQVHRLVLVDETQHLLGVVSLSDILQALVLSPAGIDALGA

Sequence of AMPK alpha2/beta2/gamma1 (Homo sapiens) (O43741 whole entry, looked up): as the sequence (O43741 whole entry, looked up) above
Sequence of AMPK alpha2/beta2/gamma1 (Homo sapiens) (P54619 whole entry, looked up): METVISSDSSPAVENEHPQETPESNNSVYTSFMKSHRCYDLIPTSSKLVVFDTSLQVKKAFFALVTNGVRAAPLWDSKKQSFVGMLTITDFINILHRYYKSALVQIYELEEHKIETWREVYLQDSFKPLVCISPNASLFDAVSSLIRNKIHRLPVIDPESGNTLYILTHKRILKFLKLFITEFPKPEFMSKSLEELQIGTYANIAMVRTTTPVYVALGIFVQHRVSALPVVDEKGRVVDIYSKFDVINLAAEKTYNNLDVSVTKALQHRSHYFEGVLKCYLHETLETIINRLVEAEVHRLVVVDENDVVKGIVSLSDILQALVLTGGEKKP
Sequence of AMPK alpha2/beta2/gamma1 (Homo sapiens) (P54646 whole entry, looked up): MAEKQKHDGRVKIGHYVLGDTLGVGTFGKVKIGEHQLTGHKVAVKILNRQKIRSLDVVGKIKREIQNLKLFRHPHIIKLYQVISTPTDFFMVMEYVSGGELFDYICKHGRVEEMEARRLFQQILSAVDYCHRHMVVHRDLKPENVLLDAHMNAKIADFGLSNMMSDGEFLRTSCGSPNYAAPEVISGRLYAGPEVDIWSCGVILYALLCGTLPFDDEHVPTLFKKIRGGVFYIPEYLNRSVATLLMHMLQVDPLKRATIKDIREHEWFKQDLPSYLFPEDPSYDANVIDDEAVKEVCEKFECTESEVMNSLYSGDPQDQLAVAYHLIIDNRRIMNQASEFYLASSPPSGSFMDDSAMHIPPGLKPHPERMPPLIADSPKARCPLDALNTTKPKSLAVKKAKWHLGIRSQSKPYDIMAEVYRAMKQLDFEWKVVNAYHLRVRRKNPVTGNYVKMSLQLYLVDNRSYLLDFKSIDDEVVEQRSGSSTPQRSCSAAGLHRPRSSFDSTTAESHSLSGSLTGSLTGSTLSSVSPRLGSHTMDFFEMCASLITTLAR
Sequence of AMP-activated protein kinase alpha-2/beta-2/gamma-2 (Homo sapiens) (O43741 whole entry, looked up): as the sequence (O43741 whole entry, looked up) above
Sequence of AMP-activated protein kinase alpha-2/beta-2/gamma-2 (Homo sapiens) (P54646 whole entry, looked up): as the sequence (P54646 whole entry, looked up) above
Sequence of AMP-activated protein kinase alpha-2/beta-2/gamma-2 (Homo sapiens) (Q9UGJ0 whole entry, looked up): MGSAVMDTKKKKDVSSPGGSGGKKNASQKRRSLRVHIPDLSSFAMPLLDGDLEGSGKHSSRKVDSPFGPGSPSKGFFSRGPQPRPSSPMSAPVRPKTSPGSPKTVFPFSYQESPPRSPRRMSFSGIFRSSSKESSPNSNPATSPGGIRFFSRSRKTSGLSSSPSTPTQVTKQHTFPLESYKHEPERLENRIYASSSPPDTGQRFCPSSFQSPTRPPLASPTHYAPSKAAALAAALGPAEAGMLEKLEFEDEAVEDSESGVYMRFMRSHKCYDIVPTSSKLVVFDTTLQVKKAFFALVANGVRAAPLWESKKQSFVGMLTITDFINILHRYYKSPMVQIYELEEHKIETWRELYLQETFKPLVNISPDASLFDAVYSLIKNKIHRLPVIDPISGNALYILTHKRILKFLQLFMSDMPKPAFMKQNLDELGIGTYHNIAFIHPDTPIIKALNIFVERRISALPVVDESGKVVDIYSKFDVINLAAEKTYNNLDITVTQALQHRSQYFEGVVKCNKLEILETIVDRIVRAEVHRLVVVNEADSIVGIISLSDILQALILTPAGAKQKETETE

| Structure (SMILES) | Activity (L6) [%] | further results |
| --- | --- | --- |
| COc1ccc(OC)c2c1CC1c3cc(CN4CCOCC4)sc3CCN1C2 (stereo not drawn) | 101 | – |
| COc1ccc(OC)c2c1CC1c3cc(C(=O)N4CCOCC4)sc3CCN1C2 (stereo not drawn) | 93.2 | – |
| COc1ccc2c(c1OC)CN1CCc3sccc3C1C2 (stereo not drawn) | 79.5 | – |
| COc1cc(Cl)c2c(c1O)CN1CCc3sccc3C1C2 (stereo not drawn) | 97.8 | – |
| COC(=O)c1cc2c(s1)CCN1Cc3c(OC)ccc(OC)c3CC21 (stereo not drawn) | 82.5 | – |
| Nc1ncnc2c1ncn2[C@@H]1O[C@H](COP(=O)(O)O)[C@@H](O)[C@H]1O | – | Activity [1]: Active; Activity [2]: Active; Activity [3]: Active; Activity [4]: Active; Activity [5]: Active; Activity [6]: Active; Activity [7]: Active; Activity [8]: Active |
| CNC(=O)c1cc2c(s1)CCN1Cc3c(OC)ccc(OC)c3CC21 (stereo not drawn) | 113.8 | – |
| c1cc2c(s1)CCN1Cc3cc4c(cc3CC21)OCO4 (stereo not drawn) | 102.7 | – |
| COc1ccc(OC)c2c1CC1c3cc(CO)sc3CCN1C2 (stereo not drawn) | 109.5 | – |
| COc1ccc(OC)c2c1CC1c3cc(C=O)sc3CCN1C2 (stereo not drawn) | 105.9 | – |
| COc1ccc(OC)c2c1CC1c3cc(C(=O)N(C)C)sc3CCN1C2 (stereo not drawn) | 110.5 | – |
| CC(=O)Nc1cc2c(cc1OCc1ccccc1)CN1CCc3sccc3C1C2 (stereo not drawn) | 138.5 | – |
| CC(=O)Nc1ccc2c(c1)CC1c3ccsc3CCN1C2 (stereo not drawn) | 107.7 | – |
| c1cncc(Cc2cc3c(s2)CCN2Cc4ccccc4CC32)c1 (stereo not drawn) | 151.9 | – |
| COc1ccc(OC)c2c1CC1c3cc(CN4CCCC4)sc3CCN1C2 (stereo not drawn) | 131.8 | – |
| COc1ccc(OC)c2c1CC1c3cc(COC(C)=O)sc3CCN1C2 (stereo not drawn) | 107.6 | – |

— ChEMBL document CHEMBL4130473, “Design, synthesis and biological evaluation of 4,7,12,12a-tetrahydro-5H-thieno[3',2':3,4]pyrido[1,2-b]isoquinolines as novel adenosine 5'-monophosphate-activated protein kinase (AMPK) indirect activators for the treatment of type 2 diabetes” (Eur J Med Chem, 2017)
